Data from patent US7112598B2, “κ opioid receptor agonist comprising 2-phenylbenzothiazoline derivative” (Santen Pharmaceutical Co., Ltd., priority 2002, dated 2006).
Structures can show the parent of a compound that is named as a salt.

Columns and labels:
[1] = system: mouse acetic acid writhing; assay: Antinociceptive action test by mouse acetic acid writhing method; assay type: in vivo; settings: 30 mg/kg oral, 20 min before 0.7% acetic acid i.p., writhing counted 10 to 20 minutes after acetic acid, vs vehicle group, average of seven samples
Method: 2. Antinociceptive Action Tests by Mouse Acetic Acid Writhing Method
Accordingly, antinociceptive action tests of test compounds were carried out using the mouse acetic acid writhing method, and analgesic effects of the test compounds were evaluated.
Twenty minutes after oral administration of the test compound (30 mg/kg), the 0.7% acetic acid solution was administered intraperitoneally in a rate of 0.1 ml per 10 g of mouse weight.
Inhibition rates were calculated according to the following equation.
The antinociceptive action of the test compound was expressed in an inhibition rate to writhing numbers of a vehicle group.

[2] = target: human κ opioid receptor (Homo sapiens, UniProt P41145); assay: κ opioid receptor agonist activity test in GTP binding activity measurement system ([35S]GTPγS binding); assay type: biochemical; settings: test compound concentration 10^−9 M, binding of 10^−6 M (−)-U50488 = 100%, human κ opioid receptor membrane preparation, average of duplicate
Method: 1. κ Opioid Receptor Agonist Activity Tests in GTP Binding Activity Measurement System
Jinmin Zhu et al. reported a method of evaluating agonist activities of drugs on a κ opioid receptor wherein guanosine 5′-triphosphate (GTP) radiolabelled with a human κ opioid receptor is used in J. Pharmaco. Exp. Ter., 282, 676–684 (1997). κ opioid receptor agonist activities (actions) of test compounds were evaluated according to the method described in the above-mentioned literature.
N-2-Hydroxyethylpiperazine-N′-2-ethanesulfonic acid (HEPES, 4.77 g), magnesium chloride hexahydrate (2.03 g), sodium chloride (5.84 g), disodium […] (EDTA•2Na, 0.37 g), DL-dithiothreitol (DTT, 0.15 g) and bovine serum albumin (BSA, 1.0 g) were dissolved in ultrapure water, pH was adjusted to 7.4 with sodium hydroxide, and further ultrapure water was added to the mixture so that a total amount was one liter to prepare a incubation buffer.
Nine volume of the incubation buffer was added to one volume of dimethyl sulfoxide (DMSO) to prepare a 10% DMSO-incubation buffer.
Tris(hydroxymethyl)aminomethane hydrochloride (TRIZA-HCl, 66.1 g) and Tris(hydroxymethyl)aminomethane (TRIZA-Base, 9.7 g) were dissolved in ultrapure water so that a total amount was 10 liters to prepare a 50 mM Tris-hydrochloric acid buffer (pH 7.4).
A human κ opioid receptor membrane preparation (100 unit/ml) was diluted 60 times with the incubation buffer under ice-cold to prepare a human κ opioid receptor membrane preparation solution. The membrane preparation solution was preserved under ice-cold.
A test compound was dissolved in 100% DMSO to prepare a 10^−3 M test compound solution, and then the incubation buffer was added to the 10^−3 M test compound solution to prepare a 10^−4 M test compound solution. Next, the 10% dimethyl sulfoxide-incubation buffer was added to the 10^−4 M test compound solution to prepare a 10^−5 M, 10^−6 M, 10^−7 M, 10^−8 M or 10^−9 M test compound solution.
A drug (−)-U50488 (J. Pharmacol. Exp. Ther., 224, 7–12 (1983)), which is known as a κ opioid receptor agonist, was used as a positive control drug in the tests.
(−)-U-50488 was dissolved in 100% DMSO to prepare a 10^−3 M positive control drug solution, and then the incubation buffer was added to the 10^−3 M positive control drug solution to prepare a 10^−4 M positive control drug solution. Next, the 10% DMSO-incubation buffer was added to the 10^−4 M positive control drug solution to prepare a 10^−6 M positive control drug solution.
GDP was dissolved in ultrapure water to prepare a 10^−3 M GDP solution, and the incubation buffer was added to the 10^−3 M GDP solution to prepare a 10^−5 M GDP solution.
10^−3 M [^35S]GTPγS was diluted with the incubation buffer to prepare 10^−9 M radiolabelled reagent.
• 1. The incubation buffer (50 μl), the 10^−5 M GDP solution (50 μl), the human κ opioid receptor membrane preparation solution (300 μl), the test compound solution and the 10^−9 M radiolabelled reagent (50 μl) were put into a glass tube, and then the mixture was incubated at 30° C. for 60 minutes. • 2. The 50 mM Tris-hydrochloric acid buffer (pH 7.4) was added to the mixture to stop the reaction, the reaction mixture was suction-filtered with a GF/B filter, and then the residue on the GF/B filter was washed with the 50 mM Tris-hydrochloric acid buffer (3 ml) three times. • 3. The GF/B filter was air-dried, and then the residue on the GF/B filter was taken out with an antomatic dispenser and transfered into a vial. • 4. Scintisol EX-H (5 ml) was introduced into the vial to prepare a sample solution, and then radioactivity in the sample solution was measured with a liquid scintillation counter for one minute. The radioactivity was expressed in “cpm” (counts per minute). Calculation Formula of κ Opioid Receptor Agonist Activity
Each agonist activity of the test compound on the κ opioid receptor was expressed in [^35S]GTPγS binding % when [^35S]GTPγS binding of 10^−6 M (−)-U50488 was 100%. […]

human κ opioid receptor, sequence (P41145 whole entry): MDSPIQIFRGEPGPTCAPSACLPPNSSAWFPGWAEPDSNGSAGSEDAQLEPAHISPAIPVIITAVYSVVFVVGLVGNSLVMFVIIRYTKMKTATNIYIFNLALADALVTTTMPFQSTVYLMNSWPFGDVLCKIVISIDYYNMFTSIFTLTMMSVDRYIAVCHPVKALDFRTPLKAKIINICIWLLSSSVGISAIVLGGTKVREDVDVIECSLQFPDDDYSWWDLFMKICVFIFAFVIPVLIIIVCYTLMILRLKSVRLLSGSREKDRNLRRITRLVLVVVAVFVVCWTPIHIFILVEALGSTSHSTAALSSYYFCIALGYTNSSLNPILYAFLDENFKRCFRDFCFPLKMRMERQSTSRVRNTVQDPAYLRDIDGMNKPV

Compound | Inhibition rate (%) ([1]; Hydrochloride, 30 mg/kg) | [^35S]GTP γ S binding % ([2]; Hydrochloride) [%] | Inhibition rate (%) [1] [%] | [^35S]GTP γ S binding % [2] [%]
CCOCCN(CCCOc1ccc(OC)cc1C1Sc2cc(Cl)ccc2N1C(C)=O)C(C)C (single isomer, unassigned; (+)) [Compound No. 9-3, (+)-3-Acetyl-6-chloro-2-[2-(3-(N-(2-ethoxyethyl)-N-isopropylamino)-propoxy)-5-methoxyphenyl]benzothiazoline Hydrochloride] | 100.0 | 117.5 |  | 
COc1ccc(OCCCN(CCO)C(C)C)c(C2Sc3cc(Cl)ccc3N2C(C)=O)c1 (stereo not drawn) [Compound No. 3-2, 3-Acetyl-6-chloro-2-[2-(3-(N-(2-hydroxyethyl)-N-isopropylamino)-propoxy)-5-methoxyphenyl]benzothiazoline Hydrochloride] | 76.1 | 66.5 |  | 
COCCOCOCCN(CCCOc1ccc(OC)cc1C1Sc2cc(Cl)ccc2N1C(C)=O)C(C)C (stereo not drawn) [Compound No. 20-2, 3-Acetyl-6-chloro-2-[2-(3-(N-isopropyl-N-(2-(2-methoxyethoxymethoxy)-ethyl)amino)propoxy)-5-methoxyphenyl]benzothiazoline] |  |  | 81.7 | 50.5
COc1ccc(OCCCN(CCO)C(C)C)c(C2Sc3cc(Cl)ccc3N2C(C)=O)c1 (single isomer, unassigned; (+)) [Compound No. 9-2, (+)-3-Acetyl-6-chloro-2-[2-(3-(N-(2-hydroxyethyl)-N-isopropylamino)-propoxy)-5-methoxyphenyl]benzothiazoline Hydrochloride] | 81.2 | 103.9 |  | 
COc1ccc(OCCCN(CCO)C(C)C)c(C2Sc3ccc(Cl)cc3N2C(C)=O)c1 (stereo not drawn) [Compound No. 5-3, 3-Acetyl-5-chloro-2-[2-(3-(N-(2-hydroxyethyl)-N-isopropylamino)-propoxy)-5-methoxyphenyl]benzothiazoline Hydrochloride] |  |  | 51.6 | 51.2
COCOCCN(CCCOc1ccc(OC)cc1C1Sc2cc(Cl)ccc2N1C(C)=O)C(C)C (stereo not drawn) [Compound No. 20-1, 3-Acetyl-6-chloro-2-[2-(3-(N-isopropyl-(N-(2-methoxymethyloxy-ethyl))amino)propoxy)-5-methoxyphenyl]benzothiazoline] |  |  | 94.8 | 65.1
COc1ccc(OCCCN(C)C(C)C)c(C2Sc3cc(Cl)ccc3N2C(C)=O)c1 (single isomer, unassigned; (+)) [Compound No. 9-12, (+)-3-Acetyl-6-chloro-2-[2-(3-(N-isopropyl-N-methylamino)propoxy)-5-methoxyphenyl]benzothiazoline Hydrochloride] |  |  | 57.8 | 107.9
COCCN(CCCOc1ccc(OC)cc1C1Sc2cc(Cl)ccc2N1C(C)=O)C(C)C (stereo not drawn) [Compound No. 3-25, 3-Acetyl-6-chloro-2-[2-(3-(N-isopropyl-N-(2-methoxyethyl)amino)-propoxy)-5-methoxyphenyl]benzothiazoline Hydrochloride] |  |  | 91.0 | 67.9
CCOCCN(CCCOc1ccc(OC)cc1C1Sc2cc(Cl)ccc2N1C(C)=O)C(C)C (stereo not drawn) [Compound No. 3-33, 3-Acetyl-6-chloro-2-[2-(3-(N-(2-ethoxyethyl)-N-isopropylamino)-propoxy)-5-methoxyphenyl]benzothiazoline Hydrochloride] | 99.5 | 75.8 |  | 
